Here are results for two compounds from US11771730B2, “Combination of Rhodiola and Astragalus for the treatment of neurodegenerative diseases” (HUMAN BY NATURE, priority 2018, dated 2023).

Assay [1] concerns differentiated SH-SY5Y (cells) exposed to Aftin-5. Nature of the assay: Curative test, Alzheimer model induced by Aftin-5 (10 μM): neurite length and cell counts. The assay is classed as cell-based, human. The following applies: 10 μM Aftin-5 for 48 hours. As to the method:
All tests were performed in three technical replicates using 96-well microplates. After inoculation, SH-SY5Y cells were differentiated by exposure to retinoic acid (10 μM) for 4 days.
After each test, the cells were fixed using a mixture of methanol and acetone at room temperature for 5 minutes, before staining the nuclei with Hoechst and immunostaining the B3 tubulin (secondary antibody conjugated to an Alexa 488 fluorochrome).
Models of neurodegenerative diseases can be established in the laboratory using differentiated neuronal cell lines. Using chemical inducers (Aftin-5, in this case), a model of Alzheimer's disease can be obtained with the human neuroblastoma cell line SH-SY5Y. The neuroprotective and curative properties of the combination of extracts are evaluated following neurotoxic aggression by counting neurons and measuring the length of neurites.
The cells were exposed for 2 days with 10 μM of Aftin-5 alone. […] After fixation and labeling, neurite outgrowth and cell counts were evaluated using MetaXpress (Molecular Devices).
The images were obtained using an ImageXpress® Micro XLS (Molecular Devices) automated microscope with a 20× objective. […] Four fields per well were recorded and analyzed individually.
The images were analyzed using MetaXpress (Molecular Devices) software.

The test system of assay [2] is DNA repair systems in HepG2 cells. Nature of the assay: DNA repair (Excision/Resynthesis, BER and NER) on lesion plasmid chip with extracts of treated HepG2 cells. The assay is classed as cell-based. Conditions: EMS alone.

With `CC[C@H](CO)Nc1nc(N(C)c2ccccc2)c2ncn(C(C)C)c2n1` [Aftin-5], in assay [1], the “neurite length compared to the control (inducer alone)” value is recorded as “significant reduction in neurite length”.
As to `CCOS(C)(=O)=O` [EMS, ethyl methane sulfonate], the “effect of genotoxic on repair of photoproducts (CPD-64), Nucleotide Excision Repair (NER)” value in assay [2] is listed as “not affected”. In addition, the “effect of genotoxic on Basic Excision Repair (BER)” value in assay [2] (at least at the highest concentration tested (1 mM)) was “exclusively stimulates Basic Excision Repair (BER)”.
